Like-named read-outs stand apart in the source and are kept apart here.
Columns and labels:
[1] = test system: human platelet-poor plasma, extrinsic pathway (PT); test: Coagulation assay: prothrombin time; format: biochemical
[2] = test system: murine C2C12 skeletal muscle myoblast cells; format: cell-based; conditions: for cytotoxicity of the inhibitor alone: 100 μM, C2C12 cells, no venom; for reduction of venom-induced cytotoxicity: GA, KL and MP venoms, SMI 0–100 μM
[3] = test system: human fibrinogen; test: Fibrinogenolytic activity of venom and its inhibition; format: biochemical
[4] = test system: D. russelii venom-induced lethality; test: Preclinical efficacy: rescue experiments; format: in vivo, mice; conditions: 24 h, n=5
[5] = test system: D. russelii venom proteases (SVMP); test: Proteolytic activity of venom and its inhibition; format: biochemical, Daboia russelii; conditions: for IC50: read-out: IC50 (inhibition of venom proteolytic activity)
[6] = test system: D. russelii venom-induced lethality; test: Preclinical efficacy: preincubation model of envenoming; format: in vivo, mice; conditions: for Percentage of survival: i.v., 24 h, n=5
[7] = test system: human platelet-poor plasma, intrinsic pathway (aPTT); test: Coagulation assay: activated partial thromboplastin time; format: biochemical
[8] = KA and RJ venoms, SMI up to 100 µM (each)
[9] = TN, KL, GA and MH venoms, SMI 0–100 µM, concentration-dependent
[10] = TN, WB and RJ venoms, SMI 0–100 μM (each)
[11] = MP venom 2.5x LD50 i.p., SMI 120 µg/mouse (each) i.v. at 0 min
[12] = KA venom 2.5x LD50 preincubated with SMI 60 µg/mouse
[13] = PB venom 2.5x LD50 preincubated with SMI 60 µg/mouse
[14] = PB venom 2.5x LD50 preincubated with SMI 120 µg/mouse
[15] = RJ venom 2.5x LD50 preincubated with SMI 60 µg/mouse
[16] = RJ venom, SMI 120 µg/mouse, venom alone mean 3 min
[17] = TN venom 2.5x LD50 preincubated with SMI 60 µg/mouse
[18] = WB venom 2.5x LD50 preincubated with SMI 60 µg/mouse

## CNC(=O)[C@@H](NC(=O)[C@H](CC(C)C)[C@H](O)C(=O)NO)C(C)(C)C [marimastat, Marimastat]
[1]; [8]
  inhibition of venom-induced PT alterations: ineffective
[1]; MP and AP venoms, SMI up to 100 µM (each)
  inhibition of venom-induced PT alterations: failed to inhibit
[1]; PB and WB venoms, SMI 0–100 µM
  inhibition of venom-induced PT alterations: capable of inhibiting
[1]; [9]
  reversal of venom-induced PT alterations: reversed
[2]
  cytotoxicity of the inhibitor alone: Neither inhibitor exhibited cytotoxicity
  reduction of venom-induced cytotoxicity: 72.88–94.85%
[2]; AP venom 50 µg/ml, SMI 0–100 µM
  inhibition of venom-induced cytotoxicity: 94.89%
[2]; [10]
  inhibition of venom-induced cytotoxicity: 41.20–70.51%
[3]; PB, KA, KL, AP, GA and RJ venoms, SMI 100 µM
  protection against venom-induced fibrinogenolysis: very effective
[3]; TN, MH, MP and WB venoms, SMI 100 µM (each)
  protection against venom-induced fibrinogenolysis: did not completely neutralise
[4]; KA venom 2.5x LD50 i.p., SMI 120 µg/mouse i.v. at 0 min
  % of survival: 40%
[4]; [11]
  % of survival: 40%
[4]; PB venom 2.5x LD50 i.p., SMI 120 µg/mouse i.v. at 0 min
  % of survival: ineffective
[5]; GA (Goa) venom
  IC50: 2330 nM
[5]; MP venom
  IC50: 1510 nM
[5]; RJ (Rajasthan) venom
  IC50: 1670 nM
[6]; [12]
  Percentage of survival: sufficient to neutralise the lethal effects
[6]; [13]
  Percentage of survival: failed to protect
[6]; [14]
  Percentage of survival: complete protection
[6]; [15]
  Percentage of survival: failed to protect
[6]; RJ venom, SMI 120 µg/mouse
  extension of survival time over venom alone: 12 x
[6]; [16]
  mean survival time of mice (onset of lethality): 36 min
[6]; [17]
  Percentage of survival: failed to protect
[6]; TN venom 2.5x LD50 preincubated with SMI 120 µg/mouse
  Percentage of survival: complete protection
[6]; [18]
  Percentage of survival: failed to protect
[7]; AP and MP venoms, SMI 0–100 µM
  inhibition of venom-induced aPTT alterations: capable of inhibiting
[7]; [8]
  inhibition of venom-induced aPTT alterations: ineffective
[7]; PB and WB venoms, SMI up to 100 µM (each)
  inhibition of venom-induced aPTT alterations: failed to inhibit
[7]; [9]
  reversal of venom-induced aPTT alterations: reversed

## N=C(N)c1ccc2cc(OC(=O)c3ccc(N=C(N)N)cc3)ccc2c1 [nafamostat, Nafamostat]
[5]; AP venom (Fig. S1), 0–100 µM
  inhibition of the protease activity of D. russelii venom: failed to inhibit
[6]; RJ venom, SMI 120 µg/mouse
  extension of survival time over venom alone: 160 x
[6]; [16]
  mean survival time of mice (onset of lethality): 480 min

## CCc1c(C(=O)C(N)=O)c2c(OCC(=O)O)cccc2n1Cc1ccccc1 [varespladib, Varespladib]
[1]; TN venom, 100 µM
  inhibition of venom-induced PT alterations: failed to prevent coagulopathy
[2]
  cytotoxicity of the inhibitor alone: Neither inhibitor exhibited cytotoxicity
  reduction of venom-induced cytotoxicity: 72.88–94.85%
[2]; MH venom 50 µg/ml, SMI 0–100 µM
  inhibition of venom-induced cytotoxicity: 88.67%
[2]; PB venom 50 µg/ml, SMI 0–100 µM
  inhibition of venom-induced cytotoxicity: 85.32%
[2]; [10]
  inhibition of venom-induced cytotoxicity: 41.20–70.51%
[4]; [11]
  % of survival: 60%
[4]; PB venom 2.5x LD50 i.p., SMI 120 µg/mouse i.v. at 30 min
  % of survival: complete protection
[6]; AP venom 2.5x LD50 preincubated 30 min with SMI 60 µg/mouse
  Percentage of survival: failed to protect
[6]; AP venom 2.5x LD50 preincubated with SMI 120 µg/mouse
  Percentage of survival: failing to prevent lethality
[6]; KA and AP venoms (both), SMI 120 µg/mouse
  extension of survival time over venom alone: 13 x
[6]; KA and AP venoms (both), SMI 120 µg/mouse, venom alone mean 3 min
  mean survival time of mice: 39 min
[6]; [12]
  Percentage of survival: failed to protect
[6]; KA venom 2.5x LD50 preincubated with SMI 120 µg/mouse
  Percentage of survival: failing to prevent lethality
[6]; [13]
  Percentage of survival: failed to protect
[6]; PB venom 2.5x LD50 preincubated with SMI 90 µg/mouse
  Percentage of survival: 80%
[6]; [14]
  Percentage of survival: complete protection
[6]; [15]
  Percentage of survival: 40%
[6]; RJ venom 2.5x LD50 preincubated with SMI 90 µg/mouse
  Percentage of survival: 60%
[6]; [17]
  Percentage of survival: failed to protect
[6]; TN venom 2.5x LD50 preincubated with SMI 90 µg/mouse
  Percentage of survival: completely protected
[6]; [18]
  Percentage of survival: 40%
[7]; TN venom, 100 µM
  inhibition of venom-induced aPTT alterations: failed to prevent coagulopathy

— PMC12152178 (Communications Medicine, 2025)
